The values that follow come from US7569603B2, “Ester compound and its use in pest control” (Sumitomo Chemical Company, Limited, priority 2006, dated 2009).

This assay deals with Adult houseflies. Description: Knock-down test on adult houseflies by spraying oil solution in a cubic chamber. Type of assay: in vivo, housefly (Musca domestica). Conditions: 0.7 ml of 0.00625% oil solution sprayed into 70 cm cubic chamber; 5 male and 5 female adult houseflies; counted up to 10 minutes after spraying. On the procedure: A solution of 0.00625 part of the present compound (1) in 10 parts of dichloromethane was mixed with 89.99375 parts of deodorized kerosene to obtain a 0.00625% oil solution.
Adult houseflies (5 males and 5 females) were left in a cubic chamber (70 cm at each side). Into the chamber, 0.7 ml of 0.00625% oil solution of the present compound (1) prepared above was sprayed with a spray gun at a pressure of 8.8×10^4 Pa from a small window on the side of the chamber. Then, up to 10 minutes after spraying, the number of knocked-down insects was counted with time. From the results, a time required for knocking down 90% of the tested insects (KT90) was calculated.
In addition, the same test was carried out that 5-benzyl-3-furylmethyl (1R)-cis-2,2-dimethyl-3-((E)-3-ethoxy-3-oxo-1-propenyl)cyclopropanecarboxylate represented by the formula:
[drawing 6] (hereinafter, referred to as the comparative compound (A)), which is the compound described in GB-A-1413491 as compound P19/2; and 3-phenylbenzyl (1R)-cis-2,2-dimethyl-3-((E)-3-ethoxy-2-fluoro-3-oxo-1-propenyl)cyclopropanecarboxylate represented by the formula:
[drawing 7] (hereinafter, referred to as the comparative compound (B)), which is the compound described in U.S. Pat. No. 4,489,093 as example 12 were used as comparative compounds (repeated twice).
As for `CCOC(=O)/C=C/[C@H]1[C@@H](C(=O)OCc2coc(Cc3ccccc3)c2)C1(C)C` [Comparative compound (A), 5-benzyl-3-furylmethyl (1R)-cis-2,2-dimethyl-3-((E)-3-ethoxy-3-oxo-1-propenyl)cyclopropanecarboxylate], the “KT90 (time required for knocking down 90% of the tested insects)” value was found to be 8.0 min.

In the case of `CCOC(=O)/C(F)=C\[C@H]1[C@@H](C(=O)OCc2cccc(-c3ccccc3)c2)C1(C)C` [Comparative compound (B), 3-phenylbenzyl (1R)-cis-2,2-dimethyl-3-((E)-3-ethoxy-2-fluoro-3-oxo-1-propenyl)cyclopropanecarboxylate], the “KT90 (time required for knocking down 90% of the tested insects)” value stood at 8.9 min.

Turning to `CCOC(=O)/C(F)=C\[C@H]1[C@@H](C(=O)OCc2coc(Cc3ccccc3)c2)C1(C)C` [Present compound (1), 5-benzyl-3-furylmethyl (1R)-cis-2,2-dimethyl-3-((E)-3-ethoxy-2-fluoro-3-oxo-1-propenyl)cyclopropanecarboxylate], the “KT90 (time required for knocking down 90% of the tested insects)” value was determined as 2.9 min.
